The results in this text go back to patent US6806276B2, “2-oxoquinoline compounds and pharmaceutical uses thereof” (Japan Tobacco Inc., priority 1999, dated 2004).

Test [1] has as its target T1, human peripheral type cannabinoid receptor (hCB2) (Homo sapiens, UniProt P34972).
T1 construct: expressed in transfected cells; host or cells: CHO cells
Nature of the test: Binding assay (in vitro), [3H]Win55212-2 displacement, membrane fractions of human CB2-CHO. The following applies: for pKi: hCB2 expressed in CHO cells, [3H]Win55212-2 2 nM, 30° C. 90 minutes; for C/S (Ki central type receptors / Ki peripheral type receptors): indicator of selectivity for peripheral type receptors.
Description: (§1) Membrane fractions of human central type cannabinoid receptor (human CB1-CHO, hereinafter called hCB1) and human peripheral type cannabinoid receptor (human CB2-CHO, hereinafter called hCB2) expressed in CHO cells were used as samples. The reference material (hCB1: 20 μg/ml, hCB2: 5 μg/ml), labeled ligand ([^3H]Win55212-2, 2 nM) and unlabeled ligand Win55212-2 or test compound were added to a 24-well round bottom plate, and the plate was incubated at 30° C. for 90 minutes. 50 mM Tris-HB55 containing 0.2% BSA was used as an assay buffer. After incubation, the mixture was filtered (Packard, Unifilter 24GF/B) and dried, and then a scintillation solution (Packard, Microsint-20) was added thereto to determine the radioactivity of the sample (Packard, Top count A9912V). Nonspecific binding was determined by the addition of excessive amount of Win55212-2 (10 μM), and specific binding was calculated by subtracting the nonspecific binding from total binding determined by the addition of the labeled ligand only. The test compound was dissolved in DMSO to make the final concentration in DMSO to be 0.1%. IC50 value was determined from the proportion of the bound test compound in the specific binding, and K1 value of the test compound was calculated from the ICso value and Kd value of [^3H]Win55212-2. K1 value for the central type receptors/K1 value for peripheral type receptors (C/S) was also calculated as an indicator of the selectivity of the test compound for peripheral type receptors.

The target of test [2] is T2, human central type cannabinoid receptor (hCB1) (Homo sapiens, UniProt P21554).
T2 construct: expressed in transfected cells; host or cells: CHO cells
T2 sequence (P21554 whole entry): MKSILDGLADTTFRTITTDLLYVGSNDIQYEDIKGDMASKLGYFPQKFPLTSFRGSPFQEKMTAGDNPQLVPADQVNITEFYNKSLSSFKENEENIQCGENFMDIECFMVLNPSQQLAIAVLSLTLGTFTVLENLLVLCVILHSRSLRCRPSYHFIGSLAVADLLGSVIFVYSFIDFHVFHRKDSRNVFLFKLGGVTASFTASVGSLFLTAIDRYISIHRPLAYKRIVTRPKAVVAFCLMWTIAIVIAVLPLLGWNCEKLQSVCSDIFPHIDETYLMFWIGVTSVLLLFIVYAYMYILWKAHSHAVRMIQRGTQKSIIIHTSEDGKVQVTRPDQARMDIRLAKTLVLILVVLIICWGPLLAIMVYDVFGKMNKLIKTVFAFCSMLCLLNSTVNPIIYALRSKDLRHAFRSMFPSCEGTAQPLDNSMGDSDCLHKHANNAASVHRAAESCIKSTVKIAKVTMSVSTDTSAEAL
The test can be described thus: Binding assay (in vitro), [3H]Win55212-2 displacement, membrane fractions of human CB1-CHO. The following applies: hCB1 expressed in CHO cells, [3H]Win55212-2 2 nM, 30° C. 90 minutes.
Description: as §1

Test [3] concerns carrageenin-induced paw edema. Nature of the test: Carrageenin-induced paw edema model (in vivo). The note with it: mice, oral in olive oil 1 hour before carrageenin, paw volume 3 hours later. Also on record: species or system C57BL/6J mice. The method, then: [2] Carrageenin-induced paw edema model (in vivo)
C57BL/6J mice (6 to 8 weeks of age) were used. […] After one hour of the administration, 50 μl of 1% solution of carrageenin in normal saline was administered intradermally at foot pad of the right hind paw. Three hours later, the volume of the right hind paw was measured and compared with the initial volume.
(In general: Carrageenan injected into the paw causes an acute inflammation.)

The mark [4] stands for this setting: read-out: Ki value Peripheral type receptor (S).
[5] abbreviates: read-out: Ki value Central type receptor (C).
The mark [6] stands for this setting: Ki value Peripheral type receptor (S).
[7] abbreviates: Ki value Central type receptor (C).

pKi: −log10 of the molar value. Where a name gives a salt, the structure may show the parent alone. Read-outs that look alike come from different tables or passages of the source. Where only a bound is given, the exact number is not on record here.

T1 sequence (P34972 whole entry): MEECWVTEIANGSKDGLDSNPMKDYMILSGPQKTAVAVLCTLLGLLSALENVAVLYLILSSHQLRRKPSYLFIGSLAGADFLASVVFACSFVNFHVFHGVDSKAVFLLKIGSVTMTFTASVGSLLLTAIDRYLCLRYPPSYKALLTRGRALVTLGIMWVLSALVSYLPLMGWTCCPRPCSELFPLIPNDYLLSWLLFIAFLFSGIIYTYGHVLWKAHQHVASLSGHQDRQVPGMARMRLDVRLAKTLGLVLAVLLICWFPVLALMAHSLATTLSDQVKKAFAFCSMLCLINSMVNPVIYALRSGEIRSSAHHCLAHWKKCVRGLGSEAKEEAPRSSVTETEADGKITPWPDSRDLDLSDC

One may read the pKi as the negative decadic logarithm of the Ki, by convention in mol/L. For `CCCOc1c(OC)ccc2cc(C(=O)NCCc3ccncc3)c(=O)[nH]c12` [Example 3-26, 7-methoxy-2-oxo-8-propoxy-1,2-dihydroquinoline-3-carboxylic acid (2-pyridine-4-ylethyl)amide], the pKi is 9.64 in test [1] (setting [4]) and 6.19 in test [2] (setting [5]). Moreover, the “C/S (Ki central type receptors / Ki peripheral type receptors)” value in test [1] is on record as 2817. Also, the ED60 in test [3] is 1.32 mg/kg; p.o.

For `CCCCOc1c(OC)ccc2cc(C(=O)NCCc3ccc(F)cc3)c(=O)[nH]c12` [Example 3-15, 8-butoxy-7-methoxy-2-oxo-1,2-dihydroquinoline-3-carboxylic acid [2-(4-fluorophenyl)ethyl]amide], the pKi in test [1] (setting [6]) was 10.80; in test [2] (setting [5]) it was 6.60. Moreover, the “C/S (Ki central type receptors / Ki peripheral type receptors)” value in test [1] was found to be 15580. In addition, the ED50 in test [3] is reported as 0.41 mg/kg; p.o.

As to `CCCCCOc1c(OC)ccc2cc(C(=O)NCc3ccncc3)c(=O)[nH]c12` [Example 3-9, 7-methoxy-2-oxo-8-pentyloxy-1,2-dihydroquinoline-3-carboxylic acid (4-pyridyl methyl)amide], in test [3], the ED50 is recorded as 0.58 mg/kg; p.o.

Turning to `CCCCCOc1c(OC)ccc2cc(C(=O)NCCc3ccc(Cl)cc3)c(=O)[nH]c12` [Example 3-22, 7-methoxy-2-oxo-8-pentyloxy-1,2-dihydroquinoline-3-carboxylic acid [2-(4-chlorophenyl)ethyl]amide], the pKi in test [1] (setting [6]) is 9.70; in test [2] (setting [7]) it was 6.87. Moreover, the “C/S (Ki central type receptors / Ki peripheral type receptors)” value in test [1] came out at 675. In addition, the ED50 in test [3] is recorded as 0.76 mg/kg; p.o.

For `CCCOc1c(OC)ccc2cc(C(=O)NCCc3ccc(F)cc3)c(=O)[nH]c12` [Example 3-27, 7-methoxy-2-oxo-8-propoxy-1,2-dihydroquinoline-3-carboxylic acid [2-(4-fluorophenyl)ethyl]amide], the pKi in test [1] (setting [4]) is 10.68; in test [2] (setting [5]) it was 6.47. For the same compound, the “C/S (Ki central type receptors / Ki peripheral type receptors)” value in test [1] turned out to be 15990. Besides, in test [3], the ED60 is reported as 0.53 mg/kg; p.o.

As to `CCCCCOc1c(OC)ccc2cc(C(=O)NCCc3ccncc3)c(=O)n(C)c12` [Example 3-37, 1-methyl-7-methoxy-2-oxo-8-pentyloxy-1,2-dihydroquinoline-3-carboxylic acid (2-pyridine-4-ylethyl)amide], the negative logarithm of the Ki (pKi) in test [1] (setting [6]) is 9.12; in test [2] (setting [7]) it was 7.11. Moreover, the “C/S (Ki central type receptors / Ki peripheral type receptors)” value in test [1] came to 104. In addition, the ED60 in test [3] is 0.63 mg/kg; p.o.

`CCCOc1c(OC)ccc2cc(C(=O)NCCc3ccccc3)c(=O)[nH]c12` [Example 3-30, 7-methoxy-2-oxo-8-propoxy-1,2-dihydroquinoline-3-carboxylic acid (2-phenylethyl)amide] had a pKi in test [1] (setting [6]) of 10.05. Moreover, the “C/S (Ki central type receptors / Ki peripheral type receptors)” value in test [1] stood at 1862. Also, in test [3], the ED60 is given as 0.49 mg/kg; p.o.

`CCCCOc1c(OC)ccc2cc(C(=O)NCCc3ccncc3)c(=O)[nH]c12` [Example 3-17, 8-butoxy-7-methoxy-2-oxo-1,2-dihydroquinoline-3-carboxylic acid (2-pyridine-4-ylethyl)amide hydrochloride]: the pKi is 9.64 in test [1] (setting [6]) and 6.70 in test [2] (setting [5]). The “C/S (Ki central type receptors / Ki peripheral type receptors)” value in test [1] (hydrochloride) came out at 867. Besides, the ED50 in test [3] was 1.39 mg/kg; p.o.

Take `CCCCCOc1c(OC)ccc2cc(C(=O)NCc3ccc4c(c3)OCO4)c(=O)[nH]c12` [Example 3-5, 7-Methoxy-2-oxo-8-pentyloxy-1,2-dihydroquinoline-3-carboxylic acid (3,4-methylenedioxybenzyl)amide]: in test [2] (setting [5]), the pKi is 5.46. In addition, the ED50 in test [3] is on record as <0.10 mg/kg; p.o.

Consider `CCCCCOc1c(OC)ccc2cc(C(=O)O)c(=O)[nH]c12` [Example 2-1, 7-methoxy-2-oxo-8-pentyloxy-1,2-dihydroquinoline-3-carboxylic acid], for which the results for the negative logarithm of the Ki (pKi) in test [1] (setting [4]) and in test [2] (setting [5]) were 8.05 and 5.36, respectively. The “C/S (Ki central type receptors / Ki peripheral type receptors)” value in test [1] is 487.

For the compound `CCCCCOc1c(OC)ccc2cc(C(=O)NCCc3ccc(O)c(OC)c3)c(=O)[nH]c12` [Example 3-21, 7-methoxy-2-oxo-8-pentyloxy-1,2-dihydroquinoline-3-carboxylic acid [2-(4-hydroxy-3-methoxyphenyl)ethyl]amide], the pKi in test [1] (setting [6]) is 9.01; in test [2] (setting [5]) it was 6.79. Also, in test [1], the “C/S (Ki central type receptors / Ki peripheral type receptors)” value is on record as 167.

For `CCCCCOc1c(OC)ccc2cc(C(=O)NCCc3ccc(F)cc3)c(=O)n(C)c12` [Example 3-36, 1-methyl-7-methoxy-2-oxo-8-pentyloxy-1,2-dihydroquinoline-3-carboxylic acid [2-(4-fluorophenyl)ethyl]amide], the pKi in test [1] (setting [6]) is 10.68; in test [2] (setting [5]), 6.74. Also, the “C/S (Ki central type receptors / Ki peripheral type receptors)” value in test [1] worked out at 8695.

Regarding `CCCCCOc1cc2cc(C(=O)O)c(=O)[nH]c2cc1OC` [Example 2-5, 7-methoxy-2-oxo-6-pentyloxy-1,2-dihydroquinoline-3-carboxylic acid], the pKi in test [1] (setting [6]) was 9.70; in test [2] (setting [5]) it was 6.36.

Consider `CCCCCOc1c(OC)ccc2cc(C(=O)NCc3ccc(F)cc3)c(=O)n(C)c12` [Example 3-40, 1-methyl-7-methoxy-2-oxo-8-pentyloxy-1,2-dihydroquinoline-3-carboxylic acid (4-fluorobenzyl)amide], for which the pKi in test [1] (setting [6]) is 8.67; in test [2] (setting [5]) it was 6.15. For the same compound, the “C/S (Ki central type receptors / Ki peripheral type receptors)” value in test [1] came to 330. The ED60 in test [3] is 1.19 mg/kg; p.o.

On to `CCCCCOc1c(OC)ccc2cc(C(=O)NCCN3CCOCC3)c(=O)n(C)c12` [Example 3-38, 1-methyl-7-methoxy-2-oxo-8-pentyloxy-1,2-dihydroquinoline-3-carboxylic acid (2-morpholinoethyl) amide], for which the pKi in test [1] (setting [6]) was 10.07; in test [2] (setting [5]), 6.03. In addition, the “C/S (Ki central type receptors / Ki peripheral type receptors)” value in test [1] amounted to 11002. In addition, the ED60 in test [3] is recorded as 2.24 mg/kg; p.o.

Regarding `CCCCOc1c(OC)ccc2cc(COC(=O)Nc3ccc(F)cc3)c(=O)[nH]c12` [Example 6-1, N-(4-fluorophenyl)carbamic acid (8-butoxy-7-methoxy-2-oxo-1,2-dihydroquinoline-3-yl)methyl ester], the negative logarithm of the Ki (pKi) is 10.35 in test [1] (setting [4]) and 6.15 in test [2] (setting [5]). Besides, in test [1], the “C/S (Ki central type receptors / Ki peripheral type receptors)” value is on record as 15612.

For `CCCCCOc1cc2cc(C(=O)OC)c(=O)[nH]c2cc1OC` [Example 1-2, 7-methoxy-2-oxo-6-pentyloxy-1,2-dihydroquinoline-3-carboxylic acid methyl ester], the pKi was 10.85 in test [1] (setting [6]) and 5.44 in test [2] (setting [5]). In addition, the “C/S (Ki central type receptors / Ki peripheral type receptors)” value in test [1] is on record as 262202.

Consider `CCCCOc1c(OC)ccc2cc(C(=O)NCCc3ccncc3)c(=O)[nH]c12` [Example 3-16, 8-butoxy-7-methoxy-2-oxo-1,2-dihydroquinoline-3-carboxylic acid (2-pyridine-4-ylethyl)amide], for which the figures for the pKi in test [1] (setting [6]) and in test [2] (setting [5]) were 11.00 and 6.68, respectively. In addition, the “C/S (Ki central type receptors / Ki peripheral type receptors)” value in test [1] stood at 20805.

As to `CCCOc1c(OC)ccc2cc(C(=O)O)c(=O)[nH]c12` [Example 2-4, 7-methoxy-2-oxo-8-propoxy-1,2-dihydroquinoline-3-carboxylic acid], the pKi in test [1] (setting [4]) is 10.49; in test [2] (setting [5]) it was 6.04. For the same compound, the “C/S (Ki central type receptors / Ki peripheral type receptors)” value in test [1] worked out at 28273.

Consider `CCOc1c(OC)ccc2cc(C(=O)NCc3ccc4c(c3)OCO4)c(=O)[nH]c12` [Example 3-35, 8-ethoxy-7-methoxy-2-oxo-1,2-dihydroquinoline-3-carboxylic acid (3,4-methylenedioxybenzyl) amide], for which the negative logarithm of the Ki (pKi) is 10.28 in test [1] (setting [6]) and 6.39 in test [2] (setting [5]). In addition, the “C/S (Ki central type receptors / Ki peripheral type receptors)” value in test [1] turned out to be 7713.

On to `CCCCCOc1c(OC)ccc2cc(C(=O)NCc3ccc(F)cc3)c(=O)[nH]c12` [Example 3-25, 7-methoxy-2-oxo-8-pentyloxy-1,2-dihydroquinoline-3-carboxylic acid (4-fluorobenzyl)amide], for which the pKi is 8.89 in test [1] (setting [6]) and 6.35 in test [2] (setting [5]). Also, in test [1], the “C/S (Ki central type receptors / Ki peripheral type receptors)” value was determined as 344.

For the compound `CCCCCOc1cc2cc(C(=O)NCc3ccc4c(c3)OCO4)c(=O)n(C)c2cc1OC` [Example 3-45, 1-methyl-7-methoxy-2-oxo-6-pentyloxy-1,2-dihydroquinoline-3-carboxylic acid (3,4-methylenedioxybenzyl)amide], the results for the negative logarithm of the Ki (pKi) in test [1] (setting [6]) and in test [2] (setting [5]) were 10.49 and 6.42, respectively. In addition, the “C/S (Ki central type receptors / Ki peripheral type receptors)” value in test [1] was determined as 11902.

As to `CCCCCOc1ccc2cc(C(=O)NCCc3ccc(F)cc3)c(=O)[nH]c2c1OCCCCC` [Example 3-46, 7,8-dipentyloxy-2-oxo-1,2-dihydroquinoline-3-carboxylic acid [2-(4-fluorophenyl)ethyl]amide], the pKi in test [1] (setting [6]) was 10.59; in test [2] (setting [7]), 6.64. For the same compound, in test [1], the “C/S (Ki central type receptors / Ki peripheral type receptors)” value is 8776.

Take `CCCCCOc1c(OC)ccc2cc(C(=O)NCCN3CCOCC3)c(=O)[nH]c12` [Example 3-11, 7-methoxy-2-oxo-8-pentyloxy-1,2-dihydroquinoline-3-carboxylic acid (2-morpholinoethyl)amide]: the ED50 in test [3] is listed as 0.40 mg/kg; p.o.
